Experimental data as given in patent US7101831B2, “Compositions of material, especially lubricants and pressure transmitting means, the production and use thereof” (Fuchs Petrolub AG, priority 2000, dated 2006).

How the values were obtained:
Assay type in all cases: physicochemical
[1] = ROBOT oxidation stability test; details: 35 g of lubricant; 6.25 bar of oxygen; T = 120° C., without catalyst
[2] = Kinematic viscosity (KV) of the esters compared to methyl oleate
From the text: (§1) Example 27 illustrates the properties of the methyl formyloxystearate and methyl [2,2-dimethylpropionyloxy]-stearate esters prepared according to examples 1 and 4 compared to pure methyl oleate (base raw material).

Viscosity index (VI) = assay: Viscosity index (VI)
From the text: as §1

Pour point = assay: Pour point
From the text: as §1

Density = assay: Density
From the text: as §1

ROBOT [1] | KV (40° C.) [2] | KV (100° C.) [2] | VI (Viscosity index (VI)) | Pour point (Pour point) | Density (15° C.) (Density) | Molecule
10 min | 4.5 mm^2/s | 1.7 mm^2/s | 178 | −18 °C |  | CCCCCCCC/C=C\CCCCCCCC(=O)OC [Methyl oleate, methyl oleate, reference compound]
165 min | 12.0 mm^2/s | 3.1 mm^2/s | 120 | −18 °C | 933.65 kg/m^3 | methyl 9(10)-formyloxystearate [Methyl formyloxystearate]
27 min | 13.1 mm^2/s | 3.4 mm^2/s | 139 | −9 °C | 902.73 kg/m^3 | CCCCCCCCCC(CCCCCCCC(=O)OC)OC(=O)C(C)(C)C (centres unmarked) [methyl 9-(10)-[2,2′-dimethylpropionyloxy]stearate]
